Columns and labels:
[1] = Inhibition of Influenza A virus H5N1 C-terminal PA interaction to N-terminal PB1 (1 to 25) expressed in human 293T cells by ELISA; format: cell-based
[2] = Cytotoxicity against MDCK cells; format: cell-based, Canis lupus familiaris; conditions: dog

Compound | IC50 [1] [µM] | CC50 [2] [µM]
Cc1ccc(-c2cc(-c3ccccc3)nc(SCC(=O)Nc3cccc(C)c3)c2C#N)cc1 | 80 | 100
Cc1ccc(-c2cc(-c3ccccc3)nc(S[C@H](C)C(=O)Nc3cccc(Cl)c3)c2C#N)cc1 | 125 | 100
Cc1ccc(-c2cc(-c3ccccc3)nc(SCC(=O)Nc3cccc(Cl)c3)c2C#N)cc1 | 180 | 100
CCOC(=O)c1ccc(NC(=O)CSc2nc(-c3ccccc3)cc(-c3ccc(OCc4ccccc4)c(OCC)c3)c2C#N)cc1 | 30 | 100
Cc1ccc(-c2cc(-c3ccccc3)nc(S[C@@H](C)C(=O)Nc3ccc(C)c(C)c3)c2C#N)cc1 | 180 | 100
COc1ccc(-c2cc(-c3ccccc3)nc(SCC(=O)Nc3ccccc3)c2C#N)cc1OC | 125 | 100
N#Cc1c(-c2cccc(Br)c2)cc(-c2ccccc2)nc1SCC(=O)Nc1ccc(Br)cc1 | 35 | 100
